According to patent US9999619B2, “Piperidin-4-yl azetidine derivatives as JAK1 inhibitors” (Incyte Corporation, priority 2010, dated 2018):
pIC50: −log10 of the molar value.

Legend:
Format in all cases: biochemical
[1] = target: human JAK1 (a.a. 837-1142); assay: In vitro JAK kinase assay (HTRF, phosphorylation of a biotinylated peptide), JAK1; conditions: ratio of JAK2 IC50 to JAK1 IC50, measured at 1 mM ATP
Experimental: (§1) Compounds herein were tested for inhibitory activity of JAK targets according to the following in vitro assay described in Park et al., Analytical Biochemistry 1999, 269, 94-104. The catalytic domains of human JAK1 (a.a. 837-1142), Jak2 (a.a. 828-1132) and Jak3 (a.a. 781-1124) with an N-terminal His tag were expressed using baculovirus in insect cells and purified. The catalytic activity of JAK1, JAK2 or JAK3 was assayed by measuring the phosphorylation of a biotinylated peptide. The phosphorylated peptide was detected by homogenous time resolved fluorescence (HTRF). […] Reactions were carried out at room temperature for 1 hr and then stopped with 20 μL 45 mM EDTA, 300 nM SA-APC, 6 nM Eu-Py20 in assay buffer (Perkin Elmer, Boston, Mass.). Binding to the Europium labeled antibody took place for 40 minutes and HTRF signal was measured on a Fusion plate reader (Perkin Elmer, Boston, Mass.).

[2] = target: Jak2 (a.a. 828-1132) (Homo sapiens (Human), UniProt O60674); assay: In vitro JAK kinase assay (HTRF, phosphorylation of a biotinylated peptide), JAK2; conditions: measured at 1 mM ATP
Chain of Jak2 (a.a. 828-1132) (O60674 828-1132): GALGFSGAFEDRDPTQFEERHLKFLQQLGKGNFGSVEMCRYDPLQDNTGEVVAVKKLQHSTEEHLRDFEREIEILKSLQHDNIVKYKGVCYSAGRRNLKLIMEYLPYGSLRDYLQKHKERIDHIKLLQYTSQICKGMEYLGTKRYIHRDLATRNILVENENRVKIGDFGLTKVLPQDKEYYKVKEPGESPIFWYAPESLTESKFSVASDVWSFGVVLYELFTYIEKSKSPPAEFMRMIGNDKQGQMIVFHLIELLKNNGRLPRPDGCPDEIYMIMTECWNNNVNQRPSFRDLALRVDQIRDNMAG
Experimental: as §1

[3] = target: human JAK1 (a.a. 837-1142) (Homo sapiens, UniProt P23458); assay: In vitro JAK kinase assay (HTRF, phosphorylation of a biotinylated peptide), JAK1; conditions: measured at 1 mM ATP
Experimental: as §1

pIC50 [2] | pIC50 [3] | Compound | IC50 Ratio JAK2/JAK1 [1]
– | – | N#CCC1(n2cc(-c3ncnc4[nH]ccc34)cn2)CN(C2CCN(Cc3ccc(F)cc3F)CC2)C1 [Example 217, {1-[1-(2,4-difluorobenzyl)piperidin-4-yl]-3-[4-(7H-pyrrolo[2,3-d]pyrimidin-4-yl)-1H-pyrazol-1-yl]azetidin-3-yl}acetonitrile] | 5.8
7.00 to 7.30 | – | CSc1ccc(C(=O)N2CCC(N3CC(CC#N)(n4cc(-c5ncnc6[nH]ccc56)cn4)C3)CC2)cc1F [Example 62, {1-{1-[3-fluoro-4-(methylthio)benzoyl]piperidin-4-yl}-3-[4-(7H-pyrrolo[2,3-d]pyrimidin-4-yl)-1H-pyrazol-1-yl]azetidin-3-yl}acetonitrile] | –
≥ 8.00 | ≥ 8.30 | N#CCC1(n2cc(-c3ncnc4[nH]ccc34)cn2)CN(C2CCN(C(=O)c3ccc(-c4cccnc4)cc3F)CC2)C1 [Example 120, {1-[1-(2-fluoro-4-pyridin-3-ylbenzoyl)piperidin-4-yl]-3-[4-(7H-pyrrolo[2,3-d]pyrimidin-4-yl)-1H-pyrazol-1-yl]azetidin-3-yl}acetonitrile] | –
< 7.00 | ≥ 8.30 | N#CCC1(n2cc(-c3ncnc4[nH]ccc34)cn2)CN(C2CCN(C(=O)c3ccnc(C(F)(F)F)c3F)CC2)C1 [Example 1, {1-{1-[3-Fluoro-2-(trifluoromethyl)isonicotinoyl]piperidin-4-yl}-3-[4-(7H-pyrrolo[2,3-d]pyrimidin-4-yl)-1H-pyrazol-1-yl]azetidin-3-yl}acetonitrile] | –
7.30 to 8.00 | 7.70 to 8.30 | CC1CC(N2CC(CC#N)(n3cc(-c4ncnc5[nH]ccc45)cn3)C2)CCN1Cc1c(F)cccc1Cl (single isomer, unassigned) [Example 245, {1-[1-(2-chloro-6-fluorobenzyl)-2-methylpiperidin-4-yl]-3-[4-(7H-pyrrolo[2,3-d]pyrimidin-4-yl)-1H-pyrazol-1-yl]azetidin-3-yl}acetonitrile] | –
7.30 to 8.00 | – | CCS(=O)(=O)N1CCC(N2CC(CC#N)(n3cc(-c4ncnc5[nH]ccc45)cn3)C2)CC1 [Example 255, {1-[1-(ethylsulfonyl)piperidin-4-yl]-3-[4-(7H-pyrrolo[2,3-d]pyrimidin-4-yl)-1H-pyrazol-1-yl]azetidin-3-yl}acetonitrile] | –
7.00 to 7.30 | ≥ 8.30 | [2H]C1([2H])CN(C(=O)c2ccnc(C(F)(F)F)c2F)CC([2H])([2H])C1([2H])N1CC(CC#N)(n2cc(-c3ncnc4[nH]ccc34)cn2)C1 [Example 364, {1-{1-[3-Fluoro-2-(trifluoromethyl)isonicotinoyl]3,3,4,5,5-pentadeuteropiperidin-4-yl}-3-[4-(7H-pyrrolo[2,3-d]pyrimidin-4-yl)-1H-pyrazol-1-yl]azetidin-3-yl}acetonitrile] | –
7.30 to 8.00 | – | N#CCC1(n2cc(-c3ncnc4[nH]ccc34)cn2)CN(C2CCN(C(=O)OCC3CCCCC3)CC2)C1 [Example 397, cyclohexylmethyl 4-{3-(cyanomethyl)-3-[4-(7H-pyrrolo[2,3-d]pyrimidin-4-yl)-1H-pyrazol-1-yl]azetidin-1-yl}piperidine-1-carboxylate] | –
7.00 to 7.30 | ≥ 8.30 | [2H]C1(N2CC(CC#N)(n3cc(-c4ncnc5[nH]ccc45)cn3)C2)CCN(C(=O)c2ccnc(C(F)(F)F)c2F)CC1 [Example 363, {1-{1-[3-Fluoro-2-(trifluoromethyl)isonicotinoyl]-4-deuteropiperidin-4-yl}-3-[4-(7H-pyrrolo[2,3-d]pyrimidin-4-yl)-1H-pyrazol-1-yl]azetidin-3-yl}acetonitrile] | –
≥ 8.00 | ≥ 8.30 | N#CCC1(n2cc(-c3ncnc4[nH]ccc34)cn2)CN(C2CCN(C(=O)c3cccc(Cl)c3)CC2)C1 [Example 19, {1-[1-(3-chlorobenzoyl)piperidin-4-yl]-3-[4-(7H-pyrrolo[2,3-d]pyrimidin-4-yl)-1H-pyrazol-1-yl]azetidin-3-yl}acetonitrile] | –
7.30 to 8.00 | 7.70 to 8.30 | CC1CC(N2CC(CC#N)(n3cc(-c4ncnc5[nH]ccc45)cn3)C2)CCN1Cc1c(F)cccc1Cl (single isomer, unassigned) [Example 244, {1-[1-(2-chloro-6-fluorobenzyl)-2-methylpiperidin-4-yl]-3-[4-(7H-pyrrolo[2,3-d]pyrimidin-4-yl)-1H-pyrazol-1-yl]azetidin-3-yl}acetonitrile] | –
7.00 to 7.30 | – | N#CCC1(n2cc(-c3ncnc4[nH]ccc34)cn2)CN(C2CCN(C(=O)c3ccc(C#N)c(F)c3)CC2)C1 [Example 66, 4-[(4-{3-(cyanomethyl)-3-[4-(7H-pyrrolo[2,3-d]pyrimidin-4-yl)-1H-pyrazol-1-yl]azetidin-1-yl}piperidin-1-yl)carbonyl]-2-fluorobenzonitrile] | –
7.30 to 8.00 | – | N#CCC1(n2cc(-c3ncnc4[nH]ccc34)cn2)CN(C2CCN(C(=O)c3ccc(-c4nccs4)c(F)c3)CC2)C1 [Example 122, {1-{1-[3-fluoro-4-(1,3-thiazol-2-yl)benzoyl]piperidin-4-yl}-3-[4-(7H-pyrrolo[2,3-d]pyrimidin-4-yl)-1H-pyrazol-1-yl]azetidin-3-yl}acetonitrile] | –
7.30 to 8.00 | ≥ 8.30 | N#CCC1(n2cc(-c3ncnc4[nH]ccc34)cn2)CN(C2CCN(C(=O)Nc3ccc(F)cc3C(F)(F)F)CC2)C1 [Example 154, 4-{3-(Cyanomethyl)-3-[4-(7H-pyrrolo[2,3-d]pyrimidin-4-yl)-1H-pyrazol-1-yl]azetidin-1-yl}-N-[4-fluoro-2-(trifluoromethyl)phenyl]piperidine-1-carboxamide] | –
≥ 8.00 | ≥ 8.30 | Cc1csc(C(=O)N2CCC(N3CC(CC#N)(n4cc(-c5ncnc6[nH]ccc56)cn4)C3)CC2)c1 [Example 79, {1-{1-[(4-meth1-2-thienyl)carbonyl]piperidin-4-yl}-3-[4-(7H-pyrrolo[2,3-d]pyrimidin-4-yl)-1H-pyrazol-1-yl]azetidin-3-yl}acetonitrile] | –
< 7.00 | 7.70 to 8.30 | N#CCC1(n2cc(-c3ncnc4[nH]ccc34)cn2)CN(C2CCN(C(=O)c3ccnc(C(F)(F)F)n3)CC2)C1 [Example 85, [3-[4-(7H-pyrrolo[2,3-d]pyrimidin-4-yl)-1H-pyrazol-1-yl]-1-(1-{[2-(trifluoromethyl)pyrimidin-4-yl]carbonyl}piperidin-4-yl)azetidin-3-yl]acetonitrile] | –
7.30 to 8.00 | – | Cc1ccc(C#N)c(N2CCC(C(=O)N3CCC(N4CC(CC#N)(n5cc(-c6ncnc7[nH]ccc67)cn5)C4)CC3)CC2)n1 [Example 108, 2-{4-[(4-{3-(cyanomethyl)-3-[4-(7H-pyrrolo[2,3-d]pyrimidin-4-yl)-1H-pyrazol-1-yl]azetidin-1-yl}piperidin-1-yl)carbonyl]piperidin-1-yl}-6-methylnicotinonitrile] | –
7.30 to 8.00 | – | N#CCC1(n2cc(-c3ncnc4[nH]ccc34)cn2)CN(C2CCN(S(=O)(=O)C3CC3)CC2)C1 [Example 256, {1-[1-(cyclopropylsulfonyl)piperidin-4-yl]-3-[4-(7H-pyrrolo[2,3-d]pyrimidin-4-yl)-1H-pyrazol-1-yl]azetidin-3-yl}acetonitrile] | –
≥ 8.00 | – | COc1cc(C(F)(F)F)sc1C(=O)N1CCC(N2CC(CC#N)(n3cc(-c4ncnc5[nH]ccc45)cn3)C2)CC1 [Example 70, {1-{1-[3-methoxy-5-(trifluoromethyl)-2-thienylcarbonyl]piperidin-4-yl}-3-[4-(7H-pyrrolo[2,3-d]pyrimidin-4-yl)-1H-pyrazol-1-yl]azetidin-3-yl}acetonitrile] | –
7.30 to 8.00 | – | CS(=O)(=O)N1CCC(N2CC(CC#N)(n3cc(-c4ncnc5[nH]ccc45)cn3)C2)CC1 [Example 254, {1-[1-(methylsulfonyl)piperidin-4-yl]-3-[4-(7H-pyrrolo[2,3-d]pyrimidin-4-yl)-1H-pyrazol-1-yl]azetidin-3-yl}acetonitrile] | –

Compound | pIC50 [2] | pIC50 [3] | IC50 Ratio JAK2/JAK1 [1]
N#CCC1(n2cc(-c3ncnc4[nH]ccc34)cn2)CN(C2CC3CCC(C2)N3C(=O)C2CCC(F)(F)CC2)C1 (stereo not shown) [Example 148, {1-{8-[(4,4-difluorocyclohexyl)carbonyl]-8-azabicyclo[3.2.1]oct-3-yl}-3-[4-(7H-pyrrolo[2,3-d]pyrimidin-4-yl)-1H-pyrazol-1-yl]azetidin-3-yl}acetonitrile] | ≥ 8.00 | – | –
N#CCC1(n2cc(-c3ncnc4[nH]ccc34)cn2)CN(C2CC3CCC(C2)N3C(=O)C2CCCC2)C1 (stereo not shown) [Example 145, {1-[8-(cyclopentylcarbonyl)-8-azabicyclo[3.2.1]oct-3-yl]-3-[4-(7H-pyrrolo[2,3-d]pyrimidin-4-yl)-1H-pyrazol-1-yl]azetidin-3-yl}acetonitrile] | 7.30 to 8.00 | 7.70 to 8.30 | –
N#CCC1(n2cc(-c3ncnc4[nH]ccc34)cn2)CN(C2CC3CCC(C2)N3C(=O)C2CCCCC2)C1 (stereo not shown) [Example 147, {1-[8-(cyclohexylcarbonyl)-8-azabicyclo[3.2.1]oct-3-yl]-3-[4-(7H-pyrrolo[2,3-d]pyrimidin-4-yl)-1H-pyrazol-1-yl]azetidin-3-yl}acetonitrile] | ≥ 8.00 | ≥ 8.30 | –
N#CCC1(n2cc(-c3ncnc4[nH]ccc34)cn2)CN(C2CC3CCC(C2)N3C(=O)c2ccnc(C(F)(F)F)c2)C1 (stereo not shown) [Example 144, (3-[4-(7H-pyrrolo[2,3-d]pyrimidin-4-yl)-1H-pyrazol-1-yl]-1-{8-[2-(trifluoromethyl)isonicotinoyl]-8-azabicyclo[3.2.1]oct-3-yl}azetidin-3-yl)acetonitrile] | 7.30 to 8.00 | 7.70 to 8.30 | –
